How the values were obtained:
[1] = Tolerability / clinical observation of cynomolgus monkeys (Example 8); format: in vivo, cynomolgus monkey; details: cynomolgus monkeys, 40 mg/kg s.c.
Description: Cynomolgus monkeys were treated with ISIS antisense oligonucleotides selected from studies described above. Antisense oligonucleotide efficacy and tolerability were evaluated. The human antisense oligonucleotides tested are cross-reactive with the rhesus genomic sequence (GENBANK Accession No. NW_001118167.1 truncated from nucleotides 2358000 to 2391000 and designated herein as SEQ ID NO: 18).
During the study period, the monkeys were observed a minimum of once daily for signs of illness or distress. Any animal experiencing more than momentary or slight pain or distress due to the treatment, injury or illness was promptly reported to the responsible veterinarian and the Study Director. Any animal in poor health or in a possible moribund condition was identified for further monitoring and possible euthanasia. […] The protocols described in the Example were approved by the Institutional Animal Care and Use Committee (IACUC).

[2] = tested on: PKK protein; assay: PKK protein in cynomolgus monkey plasma by ELISA (Example 8); format: in vivo; details: 40 mg/kg sc
Description: Approximately 0.9 mL of blood was collected each time from all available animals at pre-dose, day 17, day 31, day 45, day 59, and day 73, and placed in tubes containing 3.2% sodium citrate. The tubes were centrifuged (3000 rpm for 10 min at room temperature) to obtain plasma. PKK protein levels were measured in the plasma by ELISA. The results are presented in Table 52, expressed as percentage inhibition compared to the PBS control levels.

[3] = cynomolgus monkey, in vivo, sc, 40 mg/kg
Description: (§1) Prior to the study, the monkeys were kept in quarantine for a 30-day period, during which the animals were observed daily for general health. The monkeys were 2-4 years old and weighed between 2 and 4 kg. Ten groups of four randomly assigned male cynomolgus monkeys each were injected subcutaneously with ISIS oligonucleotide or PBS. PBS solution or ISIS oligonucleotides at a dose of 40 mg/kg were administered initially with a loading regimen consisting of four doses on the first week of the study (days 1, 3, 5, and 7), followed by a maintenance regimen consisting of once weekly administration starting on Day 14 (weeks 2 to 13). Subcutaneous injections were performed in clock-wise rotations at 4 sites on the back; one site per dose. The injection sites were delineated by tattoo, while sedated using ketamine, and were separated by a minimum of 3 cm.
Kidney function was also assessed by urinalysis. Fresh urine from all animals was collected using a clean cage pan on wet ice. Food was removed overnight the day before fresh urine collection was done but water was supplied. The total protein and creatinine levels were measured using a Toshiba 120FR NEO automated chemistry analyzer (Toshiba Co., Japan) and the protein to creatinine ratio was calculated.

[4] = cynomolgus monkey, in vivo, sc, 40 mg/kg; remark: listed apart in the source
Description: as §1
To evaluate any inflammatory effect of ISIS oligonucleotides in cynomolgus monkeys, the monkeys were fasted overnight. Approximately, 1.5 mL of blood samples were collected from all the study groups. Blood was collected in tubes without anticoagulant for serum separation. The tubes were kept at room temperature for a minimum of 90 min and then centrifuged at 3,000 rpm for 10 min. C-reactive protein (CRP), which is synthesized in the liver and which serves as a marker of inflammation, was measured using a Toshiba 120FR NEO chemistry analyzer (Toshiba Co., Japan). Complement C3 was also measured similarly, and the data is presented as a percentage of baseline values.

[5] = cynomolgus monkey, in vivo, sc, 40 mg/kg; remark: listed apart in the source
Description: as §1
To evaluate the effect of ISIS oligonucleotides on kidney function, the monkeys were fasted overnight. Approximately, 1.5 mL of blood samples were collected from all the study groups. Blood was collected in tubes without anticoagulant for serum separation. The tubes were kept at room temperature for a minimum of 90 min and then centrifuged at 3,000 rpm for 10 min. Levels of BUN and creatinine were measured using a Toshiba 120FR NEO chemistry analyzer (Toshiba Co., Japan).

[6] = cynomolgus monkey, in vivo, sc, 40 mg/kg; remark: listed apart in the source
[7] = cynomolgus monkey, in vivo, sc, 40 mg/kg; remark: listed apart in the source
Description: as §1
To evaluate any effect of ISIS oligonucleotides in cynomolgus monkeys on hematologic parameters, blood samples of approximately 1.2 mL of blood was collected pre-dose and on day 87 or day 88 from each of the available study animals in tubes containing K2-EDTA. Samples were analyzed for red blood cell (RBC) count, white blood cells (WBC) count, platelet count, hemoglobin content and hematocrit, using an ADVIA2120i hematology analyzer (SIEMENS, USA).

Row | Substance | clinical observation, euthanasia [1] | PKK protein level reduction (%) in plasma relative to control levels ([2]; Day 17) | PKK protein level reduction (%) in plasma relative to control levels ([2]; Day 31) | PKK protein level reduction (%) in plasma relative to control levels ([2]; Day 45) | PKK protein level reduction (%) in plasma relative to control levels ([2]; Day 59) | PKK protein level reduction (%) in plasma relative to control levels ([2]; Day 73) | Urine protein/creatinine ratio [3] | C3 (% of baseline) [4] | CRP [4] | Plasma BUN [5] | Plasma Creatinine [5] | ALT [6] | AST [6] | Albumin [6] | HCT [7] | Hemoglobin [7] | Platelets [7] | RBC [7] | WBC [7]
1 | ISIS 547445: gapmer targeting human PKK, selected from earlier screens; sequence in a table not shown (antisense GCCACTATAGATGCGCCAAA; gapmer, wing chemistry not given here) | two monkeys treated with ISIS 547445 were euthanized | – | – | – | – | – | – | – | – | – | – | – | – | – | – | – | – | – | –
2 | ISIS 546232: antisense oligonucleotide targeting human PKK; sequence in a table not shown (antisense AGGAACTTGGTGTGCCACTT; 5-10-5 MOE gapmer, further chemistry not given here) | – | 53% | 58% | 72% | 75% | 70% | 0.03 | 50 % of baseline | 0.5 mg/dL | 22.7 mg/dL | 1.0 mg/dL | 140 IU/L | 63 IU/L | 4.1 g/dL | 42% | 12.9 g/dL | 391000 µL⁻¹ | 5.4e+06 µL⁻¹ | 11000 µL⁻¹
3 | ISIS 546828: gapmer targeting human PKK, selected from earlier screens; sequence in a table not shown (ACAGTATCACTGTACTAGTT; gapmer, wing chemistry not given here) | – | 0% | 8% | 23% | 39% | 39% | 0.03 | 56 % of baseline | 0.6 mg/dL | 24.7 mg/dL | 0.9 mg/dL | 67 IU/L | 75 IU/L | 3.7 g/dL | 43% | 12.9 g/dL | 408000 µL⁻¹ | 6e+06 µL⁻¹ | 11000 µL⁻¹
4 | ISIS 547927: antisense oligonucleotide targeting human PKK; sequence in a table not shown (ATGGTCCGACACACAA; deoxy, MOE and cEt modifications, further chemistry not given here) | – | 8% | 0% | 15% | 10% | 18% | 0.04 | 73 % of baseline | 0.2 mg/dL | 22.3 mg/dL | 1.0 mg/dL | 61 IU/L | 59 IU/L | 4.2 g/dL | 41% | 12.5 g/dL | 461000 µL⁻¹ | 5.2e+06 µL⁻¹ | 45000 µL⁻¹
5 | ISIS 546251: antisense oligonucleotide targeting nucleobases 27427-27466 of SEQ ID NO: 10; sequence in a table not shown (antisense GGCAAACATTCACTCCTTTA; 5-10-5 MOE gapmer, further chemistry not given here) | – | 71% | 75% | 75% | 81% | 77% | 0.12 | 62 % of baseline | 0.7 mg/dL | 25.4 mg/dL | 1.1 mg/dL | 58 IU/L | 51 IU/L | 3.7 g/dL | 43% | 12.9 g/dL | 419000 µL⁻¹ | 5.7e+06 µL⁻¹ | 8000 µL⁻¹
6 | ISIS 547455: antisense oligonucleotide targeting nucleobases 30570-30610 of SEQ ID NO: 10; sequence in a table not shown (ATATCATGATTCCCTTCTGA; 5-10-5 MOE gapmer, further chemistry not given here) | – | 26% | 33% | 43% | 58% | 58% | 0.70 | 64 % of baseline | 1.9 mg/dL | 29.4 mg/dL | 0.9 mg/dL | 61 IU/L | 56 IU/L | 3.8 g/dL | 34% | 10.2 g/dL | 448000 µL⁻¹ | 4.5e+06 µL⁻¹ | 13000 µL⁻¹
7 | ISIS 547457: antisense oligonucleotide targeting nucleobases 30570-30610 of SEQ ID NO: 10; sequence in a table not shown (AAGGCGATATCATGATTCCC; 5-10-5 MOE gapmer, further chemistry not given here) | – | 68% | 75% | 79% | 76% | 80% | 0.03 | 53 % of baseline | 0.3 mg/dL | 24.3 mg/dL | 1.0 mg/dL | 52 IU/L | 54 IU/L | 4.0 g/dL | 45% | 13.8 g/dL | 367000 µL⁻¹ | 6.4e+06 µL⁻¹ | 10000 µL⁻¹

Reference: US11840686B2, “Modulation of prekallikrein (PKK) expression” (Ionis Pharmaceuticals, Inc., priority 2013, dated 2023)
